Tests used:
Type in all cases: functional, cell-based
P388 = assay: Cytotoxicity against mouse P388 cells
[1] = Cytotoxicity against human MEL-28 cells; details: SK-MEL-28
A549 = assay: Cytotoxicity against human A549 cells
HT-29 = assay: Cytotoxicity against human HT29 cells

Measured: IC50

C=C(C)[C@H]1[C@@H]2C[C@@]3(C)C4=CC[C@H]5C(C)(C)[C@@H](O[C@@H]6OC[C@@H](O)[C@H](O)[C@H]6O[C@@H]6O[C@H](C)[C@@H](O[C@@H]7O[C@H](CO)[C@@H](O)[C@H](O[C@@H]8OC[C@@H](O)[C@H](OC)[C@H]8O)[C@H]7O)[C@H](O)[C@H]6O[C@@H]6O[C@H](C)[C@@H](O)[C@H](O)[C@H]6O)CC[C@]5(C)[C@@H]4CC[C@]13C(=O)O2
5 µg/mL: P388 | [1] | A549 | HT-29

C=C(C)[C@H]1[C@@H]2C[C@@]3(C)C4=CC[C@H]5C(C)(C)[C@@H](O[C@@H]6OC[C@@H](O)[C@H](O)[C@H]6O[C@@H]6O[C@H](C)[C@@H](O[C@@H]7O[C@H](CO)[C@@H](O)[C@H](O[C@@H]8OC[C@@H](O)[C@H](OC)[C@H]8O)[C@H]7O)[C@H](O)[C@H]6O[C@@H]6O[C@H](CO)[C@@H](O)[C@H](O)[C@H]6O)CC[C@]5(C)[C@@H]4CC[C@]13C(=O)O2
5 µg/mL: P388 | [1] | A549 | HT-29
